Data: patent publication US20240377404A1, “BIOLUMINESCENCE-TRIGGERED PHOTOCATALYTIC ACTIVATION” (Promega Corporation, priority 2023, published 2024)

Experiments:
[1] = system: HeLa cells expressing the HT178-cpNLuc-179 chimera; test: Bioluminescence-triggered uncaging of azido-quenched fluorophores inside cells; format: cell-based; settings: 2-20 μM fluorophore, 20 μM fluorofurimazine 45 minutes, with/without Ir-9049 or Ru-8974 (3 μM)
Method: Structure of exemplary azido quenched fluorophores and a cartoon depicting bioluminescent-triggered fluorescence turn-on are included in FIG. 9. Briefly, upon absorbance of light, the excited catalyst engages in energy transfer events with the azido-quenched fluorophore to generate a nitrene through elimination of an N2 group, which restore the fluorophore's fluorescence. HeLa cells were transfected with a DNA construct encoding HT178-cpNLuc-179 that was diluted 50-fold into promoterless carrier DNA, plated in flasks at 2×10^5 cell/mL, and incubated 16-18 hours at 37° C., 5% CO2. The next day, cells were collated, replated in 24-well plates at 2×10^5 cell/mL, and incubated overnight at 37° C., 5% CO2. […] Cells were then washed twice, 15 minutes each, in HBSS buffer to remove excess unreacted catalyst or chloroalkane-biotin.

[2] = system: Firefly (FFLY) luciferase; test: Bioluminescence-triggered uncaging of o-nitrobenzyl-F-luciferin, FFLY luminescence readout; format: biochemical
Method: (§1) As depicted in FIG. 18A, bioluminescence-triggered ruthenium-catalyzed excitation of o-nitrobenzyl-caged F-luciferin to liberate F-luciferin, which is then available as a substrate for FFLY luciferase. Synthesis of o-nitrobenzyl-caged F-luciferin is provided in Example 11. […] Residual NanoLuc bioluminescence signal was quenched by treatment with 10 mM competitive extracellular NanoLuc inhibitor before subsequent 5-fold dilution into FFLY detection plate comprising FFLY luciferase, ATP, and Bright-Glo buffer. Bioluminescence was measured before and after dilution into the FFLY detection plate.

[3] = system: Firefly (FFLY) luciferase; test: Bioluminescence-triggered uncaging of p-azidobenzyl-luciferin, FFLY luminescence readout; format: biochemical
Method: as §1, with “FIG. 17A,” for “FIG. 18A,”, “ruthenium-catalyzed reduction” for “ruthenium-catalyzed excitation”, “of p-azidobenzyl-caged luciferin” for “of o-nitrobenzyl-caged F-luciferin”, “liberate luciferin,” for “liberate F-luciferin,”, “as” for “as a”, “for Firefly (FFLY)” for “for FFLY”

[4] = system: NanoLuc (Nluc) enzyme; test: Bioluminescence-triggered release of serotonin from caging Ru complex; format: biochemical; settings: 200 μM RuBi5, 6 nM NanoLuc, 5 μM fluorofurimazine, 40 minutes
Method: As depicted in FIG. 16A, the amino-signaling molecule serotonin is caged through a coordination reaction with the [Ru^2+(bpy)2]2 core. Upon absorbance of light, the excited ruthenium catalyst induces an oxidation-driven release of serotonin while a water molecule occupies the vacant coordination site.
Here, 6 nM NanoLuc (Nluc) enzyme and 5 μM fluorofurimazine, in the presence and absences of 200 μM RuBi5 (Abcam), were incubated in a white plate for 40 minutes. Reactions were then transferred to a black plate, and 200 μM RuBi5 (caged) added to the control wells.

[5] = 60 nM HT178-cpNLuc-179 tethered/untethered to Ru-8974, 0-10 μM, with/without 20 μM fluorofurimazine, 45 minutes
[6] = fold increase in FFLY luminescence

Compound: CC[n+]1c(-c2ccccc2)c2cc(N=[N+]=[N-])ccc2c2ccc(N)cc21.[Br-] [EMA, Ethidium Monoazide Bromide, reference compound]
- fluorescence turn-on upon uncaging [1]: pronounced catalyst dependent increase in fluorescence

Compound: CCN(CC)c1ccc2c(C)c(N=[N+]=N)c(=O)oc2c1 [PBI-8977]
- fluorescence turn-on upon uncaging [1]: pronounced catalyst dependent increase in fluorescence

Compound: O=C(O)[C@H]1CSC(c2nc3cc(F)c(OCc4ccc([N+](=O)[O-])cc4)cc3s2)=N1 [o-nitrobenzyl-F-luciferin, (S)-2-(5-fluoro-6-((4-nitrobenzyl)oxy)benzo[d]thiazol-2-yl)-4,5-dihydrothiazole-4-carboxylic acid]
- FFLY luminescence after uncaging [2, 5]: Bioluminescence and Ru-dependent increase in FFLY dependent bioluminescence
- uncaging efficiency, bioluminescence versus LED [2, 6]: higher efficiency for bioluminescence-driven uncaging compared to LED

Compound: [N-]=[N+]=Nc1ccc(COc2ccc3nc(C4=N[C@@H](C(=O)O)CS4)sc3c2)cc1 [p-azidobenzyl-luciferin, (S)-2-(6-((4-azidobenzyl)oxy)benzo[d]thiazol-2-yl)-4,5-dihydrothiazole-4-carboxylic acid]
- FFLY luminescence after uncaging [3, 5]: Bioluminescence and Ru-dependent increase in FFLY dependent bioluminescence
- uncaging efficiency, bioluminescence versus LED [3, 6]: higher efficiency for bioluminescence-driven uncaging compared to LED

Compound: [Ru(bpy)2(PMe3)(5HT)]^2+ [RuBi5]
- serotonin emission after bioluminescence exposure [4]: bioluminescence-dependent increase in the 340 nm peak emission for serotonin
